# Patent US10370433B2, “Compositions and methods for diagnosis and treatment of cancer” (BIONTECH AG, priority 2015, dated 2019)
# Positions of bridges follow the written chain, without caps; N, C: chain ends. Residues, ends and D or L forms follow the SMILES beside them.
# Biological target: T1, recombinant human Seprase (rhuSeprase) (Homo sapiens, UniProt Q12884)
# T1 construct: named pCEP4-IgKappa-huSeprase-coCHO_26-760aa-H6 and used for the generation of recombinant soluble human Seprase (rhuSeprase); mouse Ig kappa-chain V-J2-C secretion signal (N, cleaved yes); made in house; host or cells: FreeStyle CHO-S cells (transient transfection; purified from supernatant by Ni-chelate and SEC)
# T1 sequence (Q12884 26-760): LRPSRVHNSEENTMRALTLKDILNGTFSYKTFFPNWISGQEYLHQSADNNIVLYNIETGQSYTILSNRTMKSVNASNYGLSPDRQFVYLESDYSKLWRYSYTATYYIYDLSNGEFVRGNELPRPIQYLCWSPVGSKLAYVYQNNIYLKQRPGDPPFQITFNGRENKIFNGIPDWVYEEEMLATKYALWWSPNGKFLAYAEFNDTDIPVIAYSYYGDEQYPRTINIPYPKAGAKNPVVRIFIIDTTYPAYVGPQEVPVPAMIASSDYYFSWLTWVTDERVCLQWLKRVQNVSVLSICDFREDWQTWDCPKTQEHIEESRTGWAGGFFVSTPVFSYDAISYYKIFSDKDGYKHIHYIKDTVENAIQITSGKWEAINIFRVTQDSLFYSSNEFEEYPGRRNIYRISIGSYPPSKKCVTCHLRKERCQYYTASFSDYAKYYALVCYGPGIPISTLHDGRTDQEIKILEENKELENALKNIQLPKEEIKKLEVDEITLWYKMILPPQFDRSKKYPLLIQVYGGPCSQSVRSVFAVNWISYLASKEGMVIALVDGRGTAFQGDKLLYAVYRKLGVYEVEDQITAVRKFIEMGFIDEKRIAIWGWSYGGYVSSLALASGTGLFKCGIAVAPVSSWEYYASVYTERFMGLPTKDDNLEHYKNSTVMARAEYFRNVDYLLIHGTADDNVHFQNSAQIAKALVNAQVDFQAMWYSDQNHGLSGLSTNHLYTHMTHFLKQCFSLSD
# Assay: Surface plasmon resonance (Biacore T100) on immobilized rhuSeprase
# Type: binding
# Settings: for kon: read-out: ka (1/Ms)
compound,measurement,setting,value
"CC[C@H](C)[C@@H]1NC(=O)[C@@H]2CSSC[C@H](NC(=O)[C@H](C)NC(=O)CNC(=O)[C@H](CO)NC(=O)CN)C(=O)N3CCC[C@H]3C(=O)N[C@@H](Cc3ccc(O)cc3)C(=O)N[C@@H]([C@@H](C)O)C(=O)N[C@@H](CCCNC(=N)N)C(=O)N[C@@H](Cc3c[nH]c4ccccc34)C(=O)N[C@@H](C)C(=O)N[C@@H](C(C)C)C(=O)NCC(=O)N[C@@H](CCCNC(=N)N)C(=O)NCC(=O)N3CCC[C@H]3C(=O)N[C@@H](CC(=O)O)C(=O)N[C@H]3CSSC[C@H](NC1=O)C(=O)N[C@@H](CCCNC(=N)N)C(=O)NCC(=O)N[C@@H](CC(N)=O)C(=O)NCC(=O)N[C@@H](Cc1ccc(O)cc1)C(=O)N[C@H](C(=O)NCC(=O)O)CSSC[C@H](NC(=O)[C@H](CC(=O)O)NC(=O)[C@H](CO)NC(=O)[C@H](CC(=O)O)NC(=O)[C@H](CCCNC(=N)N)NC(=O)[C@H](CCCNC(=N)N)NC3=O)C(=O)N1CCC[C@H]1C(=O)NCC(=O)N[C@@H](CCCNC(=N)N)C(=O)N2 [FA8-D03] (H-GSGACPYTRWAVGRGPDCRRDSDCPGRCICRGNGYCG-OH; disulfide 5-28, 18-30, 24-36; N-terminus and C-terminus assumed)",kd,,0.1381 s⁻¹
same,kon,,939000 M⁻¹ s⁻¹
"CC[C@H](C)[C@@H]1NC(=O)[C@@H]2CSSC[C@H](NC(=O)[C@H](C)NC(=O)CNC(=O)[C@H](CO)NC(=O)CN)C(=O)N3CCC[C@H]3C(=O)N[C@@H](Cc3ccc(O)cc3)C(=O)N[C@@H]([C@@H](C)O)C(=O)N[C@@H](CCCNC(=N)N)C(=O)N[C@@H](Cc3c[nH]c4ccccc34)C(=O)N[C@@H](CCC(N)=O)C(=O)N3CCC[C@H]3C(=O)NCC(=O)N[C@@H](CCCNC(=N)N)C(=O)NCC(=O)N3CCC[C@H]3C(=O)N[C@@H](CO)C(=O)N[C@H]3CSSC[C@H](NC1=O)C(=O)N[C@@H](CCCNC(=N)N)C(=O)NCC(=O)N[C@@H](CC(N)=O)C(=O)NCC(=O)N[C@@H](Cc1ccc(O)cc1)C(=O)N[C@H](C(=O)NCC(=O)O)CSSC[C@H](NC(=O)[C@H](CC(=O)O)NC(=O)[C@H](CO)NC(=O)[C@H](CC(=O)O)NC(=O)[C@H](CCCNC(=N)N)NC(=O)[C@H](CCCNC(=N)N)NC3=O)C(=O)N1CCC[C@H]1C(=O)NCC(=O)N[C@@H](CCCNC(=N)N)C(=O)N2 [FA8-D05] (H-GSGACPYTRWQPGRGPSCRRDSDCPGRCICRGNGYCG-OH; disulfide 5-28, 18-30, 24-36; N-terminus and C-terminus assumed)",kd,,0.8121 s⁻¹
same,kon,,4.21e+06 M⁻¹ s⁻¹
"CC[C@H](C)[C@@H]1NC(=O)[C@@H]2CSSC[C@H](NC(=O)[C@H](C)NC(=O)CNC(=O)[C@H](CO)NC(=O)CN)C(=O)N3CCC[C@H]3C(=O)N[C@@H](Cc3ccc(O)cc3)C(=O)N[C@@H](CO)C(=O)N[C@@H](CCCNC(=N)N)C(=O)N[C@@H](Cc3c[nH]c4ccccc34)C(=O)N[C@@H](C)C(=O)N[C@@H](C(C)C)C(=O)NCC(=O)N[C@@H](CCCNC(=N)N)C(=O)NCC(=O)N3CCC[C@H]3C(=O)N[C@@H](CC(=O)O)C(=O)N[C@H]3CSSC[C@H](NC1=O)C(=O)N[C@@H](CCCNC(=N)N)C(=O)NCC(=O)N[C@@H](CC(N)=O)C(=O)NCC(=O)N[C@@H](Cc1ccc(O)cc1)C(=O)N[C@H](C(=O)NCC(=O)O)CSSC[C@H](NC(=O)[C@H](CC(=O)O)NC(=O)[C@H](CO)NC(=O)[C@H](CC(=O)O)NC(=O)[C@H](CCCNC(=N)N)NC(=O)[C@H](CCCNC(=N)N)NC3=O)C(=O)N1CCC[C@H]1C(=O)NCC(=O)N[C@@H](CCCNC(=N)N)C(=O)N2 [FA8-D06] (H-GSGACPYSRWAVGRGPDCRRDSDCPGRCICRGNGYCG-OH; disulfide 5-28, 18-30, 24-36; N-terminus and C-terminus assumed)",kd,,0.05303 s⁻¹
same,Kd,"KD (M, steady state)",113 nM
same,kon,,346000 M⁻¹ s⁻¹
"CC[C@H](C)[C@@H]1NC(=O)[C@@H]2CSSC[C@H](NC(=O)[C@H](C)NC(=O)CNC(=O)[C@H](CO)NC(=O)CN)C(=O)N3CCC[C@H]3C(=O)N[C@@H](Cc3ccc(O)cc3)C(=O)N[C@@H](CO)C(=O)N[C@@H](CC(N)=O)C(=O)N[C@@H](Cc3c[nH]c4ccccc34)C(=O)N[C@@H](C)C(=O)N[C@@H](C(C)C)C(=O)NCC(=O)N[C@@H](CCCNC(=N)N)C(=O)NCC(=O)N3CCC[C@H]3C(=O)N[C@@H](CO)C(=O)N[C@H]3CSSC[C@H](NC1=O)C(=O)N[C@@H](CCCNC(=N)N)C(=O)NCC(=O)N[C@@H](CC(N)=O)C(=O)NCC(=O)N[C@@H](Cc1ccc(O)cc1)C(=O)N[C@H](C(=O)NCC(=O)O)CSSC[C@H](NC(=O)[C@H](CC(=O)O)NC(=O)[C@H](CO)NC(=O)[C@H](CC(=O)O)NC(=O)[C@H](CCCNC(=N)N)NC(=O)[C@H](CCCNC(=N)N)NC3=O)C(=O)N1CCC[C@H]1C(=O)NCC(=O)N[C@@H](CCCNC(=N)N)C(=O)N2 [FA8-F04] (H-GSGACPYSNWAVGRGPSCRRDSDCPGRCICRGNGYCG-OH; disulfide 5-28, 18-30, 24-36; N-terminus and C-terminus assumed)",kd,,0.2003 s⁻¹
same,kon,,624000 M⁻¹ s⁻¹
"CC[C@H](C)[C@@H]1NC(=O)[C@@H]2CSSC[C@H](NC(=O)[C@H](C)NC(=O)CNC(=O)[C@H](CO)NC(=O)CN)C(=O)N3CCC[C@H]3C(=O)N[C@@H](Cc3ccc(O)cc3)C(=O)N[C@@H]([C@@H](C)O)C(=O)N[C@@H](CC(N)=O)C(=O)N[C@@H](Cc3c[nH]c4ccccc34)C(=O)N[C@@H](Cc3c[nH]cn3)C(=O)N3CCC[C@H]3C(=O)NCC(=O)N[C@@H](CCCNC(=N)N)C(=O)NCC(=O)N3CCC[C@H]3C(=O)N[C@@H](C)C(=O)N[C@H]3CSSC[C@H](NC1=O)C(=O)N[C@@H](CCCNC(=N)N)C(=O)NCC(=O)N[C@@H](CC(N)=O)C(=O)NCC(=O)N[C@@H](Cc1ccc(O)cc1)C(=O)N[C@H](C(=O)NCC(=O)O)CSSC[C@H](NC(=O)[C@H](CC(=O)O)NC(=O)[C@H](CO)NC(=O)[C@H](CC(=O)O)NC(=O)[C@H](CCCNC(=N)N)NC(=O)[C@H](CCCNC(=N)N)NC3=O)C(=O)N1CCC[C@H]1C(=O)NCC(=O)N[C@@H](CCCNC(=N)N)C(=O)N2 [FA8-G12] (H-GSGACPYTNWHPGRGPACRRDSDCPGRCICRGNGYCG-OH; disulfide 5-28, 18-30, 24-36; N-terminus and C-terminus assumed)",kd,,0.3171 s⁻¹
same,kon,,651000 M⁻¹ s⁻¹
"CC[C@H](C)[C@@H]1NC(=O)[C@@H]2CSSC[C@H](NC(=O)[C@H](C)NC(=O)CN)C(=O)N3CCC[C@H]3C(=O)N[C@@H](Cc3ccc(O)cc3)C(=O)N[C@@H](CO)C(=O)N[C@@H](CC(N)=O)C(=O)N[C@@H](Cc3c[nH]c4ccccc34)C(=O)N[C@@H]([C@@H](C)O)C(=O)N3CCC[C@H]3C(=O)NCC(=O)N[C@@H](CCCNC(=N)N)C(=O)NCC(=O)N3CCC[C@H]3C(=O)N[C@@H](CC(=O)O)C(=O)N[C@H]3CSSC[C@H](NC1=O)C(=O)N[C@@H](CCCNC(=N)N)C(=O)NCC(=O)N[C@@H](CC(N)=O)C(=O)NCC(=O)N[C@@H](Cc1ccc(O)cc1)C(=O)N[C@H](C(=O)NCC(=O)O)CSSC[C@H](NC(=O)[C@H](CC(=O)O)NC(=O)[C@H](CO)NC(=O)[C@H](CC(=O)O)NC(=O)[C@H](CCCNC(=N)N)NC(=O)[C@H](CCCNC(=N)N)NC3=O)C(=O)N1CCC[C@H]1C(=O)NCC(=O)N[C@@H](CCCNC(=N)N)C(=O)N2 [MC-FA-012] (H-GACPYSNWTPGRGPDCRRDSDCPGRCICRGNGYCG-OH; disulfide 3-26, 16-28, 22-34; N-terminus and C-terminus assumed)",kon,,408000 M⁻¹ s⁻¹
"CC[C@H](C)[C@@H]1NC(=O)[C@@H]2CSSC[C@H](NC(=O)[C@H](C)NC(=O)CNC(=O)[C@H](CO)NC(=O)CN)C(=O)N3CCC[C@H]3C(=O)N[C@@H](Cc3ccc(O)cc3)C(=O)N[C@@H](CO)C(=O)N[C@@H](CC(N)=O)C(=O)N[C@@H](Cc3c[nH]c4ccccc34)C(=O)N[C@@H]([C@@H](C)O)C(=O)N3CCC[C@H]3C(=O)NCC(=O)N[C@@H](CCCNC(=N)N)C(=O)NCC(=O)N3CCC[C@H]3C(=O)N[C@@H](CC(=O)O)C(=O)N[C@H]3CSSC[C@H](NC1=O)C(=O)N[C@@H](CC(C)C)C(=O)N[C@@H](CCC(=O)O)C(=O)N[C@@H](CC(N)=O)C(=O)NCC(=O)N[C@@H](Cc1ccccc1)C(=O)N[C@H](C(=O)NCC(=O)O)CSSC[C@H](NC(=O)[C@H](CC(=O)O)NC(=O)[C@H](CO)NC(=O)[C@H](CC(=O)O)NC(=O)[C@H](CO)NC(=O)[C@H](CO)NC3=O)C(=O)N1CCC[C@H]1C(=O)NCC(=O)N[C@@H](C)C(=O)N2 [MO-FA-012] (H-GSGACPYSNWTPGRGPDCSSDSDCPGACICLENGFCG-OH; disulfide 5-28, 18-30, 24-36; N-terminus and C-terminus assumed)",kd,,0.5128 s⁻¹
same,kon,,382000 M⁻¹ s⁻¹
